The values below come from patent US20110166223A1, “METHODS OF INHIBITING FGFR3 SIGNALING” (CEDARS-SINAI MEDICAL CENTER, priority 2008, published 2011).

Series [1] concerns ERK MAP kinase phosphorylation in KMS11 and OPM2 cells. Nature of the series: FGF2-mediated ERK MAP kinase phosphorylation by western blotting in MM cell lines. The class given is cell-based. Conditions: NF449 one hour before FGF2, FIG. 3a. Here is the method:
FIG. 3, in accordance with an embodiment herein, depicts 4,4′,4″,4′″-[carbonyl-bis[imino-5,1,3-benzenetriyl bis-{carbonylimino}]]tetrakis-{benzene-1,3-disulfonic acid} inhibits FGF2/FGFR3 signaling in MM cell lines OPM2 and KMS11. (a) KMS11 and OPM2 cells were serum-starved for 12 hours, treated with 4,4′,4″,4′″-[carbonyl-bis[imino-5,1,3-benzenetriyl bis-{carbonylimino}]]tetrakis-{benzene-1,3-disulfonic acid} for one hour before the treatment with FGF2 and the levels of ERK MAP kinase phosphorylation were determined by western blotting with the P-ERK1/2(Thr^202/Tyr^204) antibody. As a loading control, the membranes were reprobed with antibody recognizing ERK regardless of its phosphorylation. […] (b) The OPM2 cells were serum starved for 12 hours, pre-treated with 4,4′,4″,4′″-[carbonyl-bis[imino-5,1,3-benzenetriyl bis-{carbonylimino}]]tetrakis-{benzene-1,3-disulfonic acid} for one hour before FGF2 treatment, and analyzed for CCL3 and CCL4 expression by real-time RT-PCR as described herein. The results are expressed as the fold difference relative to control (2^ddCt). […]
Since MM represents another area of pathological FGFR3 signaling in viva, the inventors evaluated whether NF449 inhibits FGFR3 signaling in KMS11 and OPM2 MM cell lines. […]
(In western blotting, separated proteins are transferred to a membrane and probed.)

For series [2], the system named is limb growth and size of cultured embryos. Briefly: Embryo limb culture. Conditions: 30 μM; embryos cultured for six (6) days; FIG. 8. An excerpt: FIG. 8, in accordance with an embodiment herein, depicts embryos cultured for six (6) days.
In series [3] the test system is FGF2/FGFR3-mediated growth-arrest of rat chondrosarcoma (RCS) cells. The conditions noted are these: for effect on FGF2/FGFR3-mediated growth arrest (in words): FIGS. 1, 4c.
Description: In this assay, the FGF2/FGFR3-mediated growth-arrest of rat chondrosarcoma (RCS) cells is used as a reporter, thus allowing for elimination of toxic compounds as false-positive hits (Krejci, et al., Invest New Drugs 2007, 25: 391-395).
Rat chondrosarcoma chondrocytes (RCS), chinese hamster ovary (CHO) cells and MM cell lines OPM2 and KMS11 were propagated in DMEM, Opti-MEM or RPMI media (Gibco, Gaitherbsburg, Md.), supplemented with 10% fetal bovine serum (Atlanta Biological, Nordeross, Ga.) and antibiotics. […] For the RCS growth-arrest experiments shown at FIGS. 1 and 4c, 1×10^4 RCS chondrocytes were seeded in 24-well tissue culture plates (Costar, Cambridge, Mass.), treated as indicated for 72 hours, and counted. FGF2 was obtained from R&D Systems (Minneapolis, Minn.); C-natriuretic peptide, suramin, NF023 and NF449 were from Calbiochem (San Diego, Calif.).

Read-outs that look alike come from different tables or passages of the source.

Take `O=C(Nc1cc(C(=O)Nc2ccc(S(=O)(=O)O)cc2S(=O)(=O)O)cc(C(=O)Nc2ccc(S(=O)(=O)O)cc2S(=O)(=O)O)c1)Nc1cc(C(=O)Nc2ccc(S(=O)(=O)O)cc2S(=O)(=O)O)cc(C(=O)Nc2ccc(S(=O)(=O)O)cc2S(=O)(=O)O)c1` [NF449, 4,4′,4″,4′″-[carbonyl-bis[imino-5,1,3-benzenetriylbis-{carbonylimino}]]tetrakis-{benzene-1,3-disulfonic acid}]: the “FGF2-mediated Thr202/Tyr204 phosphorylation of ERK” value was “almost completely blocked” in series [1] and “inhibited” in series [1] (listed as 4,4′,4″,4′″-[carbonyl-bis[imino-5,1,3-benzenetriyl bis-{carbonylimino}]]tetrakis). The “limb growth and size” value in series [2] was “greater limb growth and size”. Moreover, the “rescue (reversal) of the growth-arrest phenotype” value in series [3] (25 μM NF449, detailed cell-growth experiments, FIG. 1a, 72 hours) is reported as approximately 70%. In series [3] (FGF2 5 ng/ml, 72 hours, FIG. 1a), the “active concentration range in the RCS growth-arrest assay” value was 8 to 30 µM. Besides, the “rescue of the FGF2-mediated RCS growth-arrest” value in series [3] (FIG. 1b, each agent alone, 72 hours) is reported as approximately 50%. Also, the “effect on FGF2/FGFR3-mediated growth arrest (in words)” value in series [3] (RCS chondrocytes) is “more potently that CNP”; in series [3] (RCS chondrocytes, listed as 4,4′,4″,4′″-[carbonyl-bis[imino-5,1,3-benzenetriyl bis-{carbonylimino}]]tetrakis), “reversal of this phenotype”. Further, the cell toxicity result in series [3] (RCS chondrocytes, throughout active concentration range (8-30 μM), listed as 4,4′,4″,4′″-[carbonyl-bis[imino-5,1,3-benzenetriyl bis-{carbonylimino}]]tetrakis) is recorded as “lack of significant”. Moreover, the “concentration range inhibiting RCS growth arrest” value in series [3] (comparison with SU5402) was in the range of 2 to 20 µM.
